Measurements from patent US20250099475A1, “METHODS OF TREATING HYPERTENSION BY PERIODIC SUPPRESSION OF ALDOSTERONE SYNTHASE” (Mineralys Therapeutics, Inc., priority 2022, published 2025).

Columns and labels:
hypertensive subjects = assay: Example 4 dose-ranging study: 24-hour ambulatory blood pressure monitoring (ABPM); format: in vivo, human; settings: for Change in ABPM (24 h) BPdias, Mean (sem) / Change in ABPM (24 h) BPmcan, Mean (sem) / Change in ABPM (24 h) BPsys, Mean (sem) / Change in ABPM (night) BPsys, Mean (sem) / Subjects with nighttime Dip 10-20% / Subjects with nighttime Dip <10% / Subjects with nighttime Dip >20%: Week 8, Full Analysis Set
[1] = biological target: T1, human CYP 11B1 (hCYP11B1) (Homo sapiens, UniProt P15538); assay: Assay of hCYP11B1 inhibition (11-deoxycortisol to cortisol); format: biochemical; settings: mitochondrial fraction of V79 cells stably expressing hCYP11B1; substrate 11-deoxycortisol; read-out: Inhibition constant (Ki) hCYP11B1
T1 construct: expressed in transfected cells; host or cells: V79 cells (mitochondrial fraction)
T1 sequence (P15538 25-503): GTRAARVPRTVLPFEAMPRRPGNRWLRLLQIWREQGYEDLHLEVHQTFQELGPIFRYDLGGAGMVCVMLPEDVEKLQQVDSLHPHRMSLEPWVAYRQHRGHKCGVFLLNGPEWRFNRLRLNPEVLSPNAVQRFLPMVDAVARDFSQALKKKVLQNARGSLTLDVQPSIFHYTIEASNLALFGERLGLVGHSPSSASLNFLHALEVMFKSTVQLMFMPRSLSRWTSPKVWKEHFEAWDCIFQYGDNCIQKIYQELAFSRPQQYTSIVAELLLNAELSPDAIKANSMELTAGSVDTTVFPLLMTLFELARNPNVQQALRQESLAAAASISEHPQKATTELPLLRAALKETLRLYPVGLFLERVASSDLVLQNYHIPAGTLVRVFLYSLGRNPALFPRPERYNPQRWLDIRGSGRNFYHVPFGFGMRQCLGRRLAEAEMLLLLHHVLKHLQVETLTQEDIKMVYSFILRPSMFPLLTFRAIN
Experimental: The inhibitory effects of Compound A on human CYP 11B1 (hCYP11B1) and human CYP11B2 (hCYP11B2) enzyme activity were evaluated by determining the enzymatic conversion rates of 11-deoxycortisol to cortisol for hCYP11B1 and 11-DOC to aldosterone for hCYP11B2.

[2] = 13-week repeat-dose oral toxicology study in monkeys; format: in vivo, cynomolgus monkey; settings: cynomolgus monkey, in vivo, oral
Experimental: (§1) The toxicologic profile of Compound A was assessed in several toxicology studies, including 13-week repeat-dose oral studies in Sprague Dawley rats and cynomolgus monkeys, a standard battery of genotoxicity studies, preliminary embryo-fetal development studies in rats and rabbits, and in vitro and in vivo phototoxicity studies. Rats and monkeys were selected for the general toxicology studies on the basis of pharmacology and metabolism data that indicated these animals would have metabolism similar to that of humans. Studies were performed in accordance with GLP regulations.
(§2) Doses in the 13-week toxicology studies were 0, 50, 150, 450 (female), and 600 (male) mg/kg/d in Sprague Dawley rats. In cynomolgus monkeys (females and males), the doses were 0, 10, 30, and 100 mg/kg/d. Hematoxylin-and-eosin-stained sections (nominal thickness of approximately 5 μm) were prepared from the formalin-fixed paraffin-embedded organs/tissues of all animals in the toxicology studies.

cynomolgus monkeys = assay: as above; format: in vivo, cynomolgus monkey
Experimental: as §1, §2

## CC(=O)N[C@H]1CC[C@H](NC(=O)CN2CCN(c3nncc(-c4ccc(C)cc4)n3)CC2)CC1 [Compound A HBr]
Hypertensive subjects; 100 mg QD cohort
  overnight reduction of systolic BP (24 h ambulatory): −11.5+/−2.9 mmHg
Hypertensive subjects; 12.5 mg BID
  Change in ABPM (24 h) BPdias, Mean (sem): −5.4 (2.2) mmHg
  Change in ABPM (24 h) BPmcan, Mean (sem): −5.5 (2.7) mmHg
  Change in ABPM (24 h) BPsys, Mean (sem): −5.7 (3.2) mmHg
  Change in ABPM (night) BPsys, Mean (sem): −7.5 (4.0) mmHg
  Subjects with nighttime Dip 10-20%: 31%
  Subjects with nighttime Dip <10%: 69%
  Subjects with nighttime Dip >20%: 0%
Hypertensive subjects; 12.5 mg QD
  Change in ABPM (24 h) BPdias, Mean (sem): −2.3 (1.7) mmHg
  Change in ABPM (24 h) BPmcan, Mean (sem): −3.7 (2.6) mmHg
  Change in ABPM (24 h) BPsys, Mean (sem): −5.2 (3.4) mmHg
  Change in ABPM (night) BPsys, Mean (sem): −5.4 (4.2) mmHg
  Subjects with nighttime Dip 10-20%: 36%
  Subjects with nighttime Dip <10%: 64%
  Subjects with nighttime Dip >20%: 0%
Hypertensive subjects; 25 mg BID
  Change in ABPM (24 h) BPdias, Mean (sem): −6.1 (1.8) mmHg
  Change in ABPM (24 h) BPmcan, Mean (sem): −7.4 (2.3) mmHg
  Change in ABPM (24 h) BPsys, Mean (sem): −8.7 (2.9) mmHg
  Change in ABPM (night) BPsys, Mean (sem): −6.0 (2.8) mmHg
  Subjects with nighttime Dip 10-20%: 17%
  Subjects with nighttime Dip <10%: 79%
  Subjects with nighttime Dip >20%: 4%
Hypertensive subjects; 50 mg QD
  Change in ABPM (24 h) BPdias, Mean (sem): −3.0 (1.6) mmHg
  Change in ABPM (24 h) BPmcan, Mean (sem): −2.4 (2.2) mmHg
  Change in ABPM (24 h) BPsys, Mean (sem): −1.8 (3.0) mmHg
  Change in ABPM (night) BPsys, Mean (sem): 2.4 (4.2) mmHg
  Subjects with nighttime Dip 10-20%: 21%
  Subjects with nighttime Dip <10%: 78%
  Subjects with nighttime Dip >20%: 0%
Hypertensive subjects; 100 mg QD
  Change in ABPM (24 h) BPdias, Mean (sem): −5.9 (1.5) mmHg
  Change in ABPM (24 h) BPmcan, Mean (sem): −7.4 (1.8) mmHg
  Change in ABPM (24 h) BPsys, Mean (sem): −8.9 (2.2) mmHg
  Change in ABPM (night) BPsys, Mean (sem): −11.5 (2.5) mmHg
  Subjects with nighttime Dip 10-20%: 46%
  Subjects with nighttime Dip <10%: 46%
  Subjects with nighttime Dip >20%: 8%

## CC(=O)N[C@H]1CC[C@H](NC(=O)CN2CCN(c3nncc(-c4ccc(C)cc4)n3)CC2)CC1 [Compound A]
[1]
  Ki: 475 nM
[2]; female monkeys
  NOAEL at 13 weeks: 10 mg/kg/day
[2]; male monkeys
  NOAEL at 13 weeks: 30 mg/kg/day
Cynomolgus monkeys; doses up to 100 mg/kg/d
  effects on electrocardiogram values: no Compound A-related effects
Cynomolgus monkeys; monkeys
  effect on cortisol: no effects on cortisol
Cynomolgus monkeys; monkeys, all dose levels (10, 30, 100 mg/kg/d)
  adrenal findings: Hypertrophy of zona glomerulosa cells in the adrenal cortices and decreased PACs
